Reference: article PMC3392217, “BmK-YA, an Enkephalin-Like Peptide in Scorpion Venom” (PLoS ONE, 2012)
No end group written: not given here.

What was measured:
Type in all cases: cell-based
human opioid receptor κ = target: T1, human opioid receptor κ (Homo sapiens, UniProt P41145); assay: Ca2+ response monitored by FLIPR, κ-expressing cells; details: κ-expressing HEK293T cells
T1 construct: expressed in transfected cells
Method: (§1) The assay was performed as reported earlier.
(§2) Potency is determined by EC50.

human opioid receptor δ = target: T2, human opioid receptor δ (Homo sapiens, UniProt P41143); assay: Ca2+ response monitored by FLIPR, δ-expressing cells
T2 construct: expressed in transfected cells
T2 sequence (P41143 whole entry): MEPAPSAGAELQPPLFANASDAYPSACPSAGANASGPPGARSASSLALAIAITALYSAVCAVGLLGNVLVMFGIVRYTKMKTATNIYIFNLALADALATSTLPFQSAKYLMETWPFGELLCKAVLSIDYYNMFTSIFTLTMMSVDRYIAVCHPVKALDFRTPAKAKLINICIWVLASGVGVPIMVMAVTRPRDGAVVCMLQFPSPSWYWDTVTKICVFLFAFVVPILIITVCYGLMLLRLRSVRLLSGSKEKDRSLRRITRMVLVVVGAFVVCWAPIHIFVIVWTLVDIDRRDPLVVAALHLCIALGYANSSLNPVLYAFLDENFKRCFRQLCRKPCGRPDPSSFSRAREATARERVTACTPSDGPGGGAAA
Method: as §1, §2

human opioid receptor μ = target: T3, human opioid receptor μ (Homo sapiens, UniProt P35372); assay: Ca2+ response monitored by FLIPR, μ-expressing cells; details: μ-expressing HEK293T cells
T3 construct: expressed in transfected cells
T3 sequence (P35372 whole entry): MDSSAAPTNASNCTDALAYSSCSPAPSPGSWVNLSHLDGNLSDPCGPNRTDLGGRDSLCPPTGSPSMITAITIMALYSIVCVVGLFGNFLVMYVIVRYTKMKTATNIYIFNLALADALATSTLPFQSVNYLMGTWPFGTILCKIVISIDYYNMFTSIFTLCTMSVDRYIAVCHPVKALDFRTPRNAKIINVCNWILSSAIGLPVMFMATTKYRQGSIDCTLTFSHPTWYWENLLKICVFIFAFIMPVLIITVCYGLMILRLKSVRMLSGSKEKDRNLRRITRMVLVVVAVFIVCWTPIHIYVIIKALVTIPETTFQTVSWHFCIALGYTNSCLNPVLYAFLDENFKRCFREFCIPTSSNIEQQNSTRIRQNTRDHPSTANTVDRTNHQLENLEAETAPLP
Method: as §1, §2

[1] = Gqαi3 cotransfected, Fluo-4 AM, FLIPR, mean±SE, n = 3, read-out: EC50 (intracellular Ca2+ mobilization)

T1 sequence (P41145 whole entry): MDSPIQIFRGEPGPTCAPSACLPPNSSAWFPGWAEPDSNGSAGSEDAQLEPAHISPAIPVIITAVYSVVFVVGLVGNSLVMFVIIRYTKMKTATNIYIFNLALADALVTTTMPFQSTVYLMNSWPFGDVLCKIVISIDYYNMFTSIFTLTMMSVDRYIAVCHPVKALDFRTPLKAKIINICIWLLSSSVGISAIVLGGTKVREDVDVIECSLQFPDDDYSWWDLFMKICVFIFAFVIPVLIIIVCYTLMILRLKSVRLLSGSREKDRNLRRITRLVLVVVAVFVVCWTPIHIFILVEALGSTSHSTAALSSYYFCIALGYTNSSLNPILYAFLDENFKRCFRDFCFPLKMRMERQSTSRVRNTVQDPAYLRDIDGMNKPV

Substance | Agonist activity, in words (human opioid receptor κ; 1 nM to 50 µM) | Agonist activity, in words (human opioid receptor δ; δ-expressing HEK293T cells, 1 nM to 50 µM) | Agonist activity, in words (human opioid receptor μ; 1 nM to 50 µM) | EC50 (human opioid receptor κ; [1]) [µM] | Selectivity to the δ-subtype over κ (times) (human opioid receptor δ; δ versus κ, FLIPR EC50) | Selectivity to the δ-subtype over μ (times) (human opioid receptor δ; δ versus μ, FLIPR EC50) | EC50 (human opioid receptor δ; δ-expressing HEK293T cells, Gqαi3 cotransfected, Fluo-4 AM, FLIPR, mean±SE, n = 3, read-out: EC50 (intracellular Ca2+ mobilization)) [nM] | EC50 (human opioid receptor μ; [1]) [µM]
YGGHMNPA [His^4-BmK-YA] | no activity was detected | no activity was detected | no activity was detected | – | – | – | – | –
YGGYMNPA-NH2 [BmK-YA] | – | – | – | 30 ± 0.5 | 12 | 6.8 | 2500 | 17
